# Data published in the supplement of paper PMC11451515.
# Test system: P12-Ichikawa
# Assay: cell viability relative to DMSO control; higher = less cytotoxic
# Conditions: 48 h
# How it was run: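 Cells were incubated for 48 h at 37°C before CellTiter-Glo One luminescence was read. The cells were NOMO1 or SEM (500 cells/well) or P12-Ichikawa (1000 cells/well) leukemia cells, adapted for at least four passages in each medium and seeded in 1536-well plates (5 μl). Dosing used library compounds in DMSO applied by pin over 11 threefold points, 47 μM to 0.79 nM. Viability is the per-plate percentage of DMSO wells, with cell-free wells as background.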
# [1] = HPLM + 10% dialyzed FBS, 0.000781 µM
# [2] = HPLM + 10% dialyzed FBS, 0.00234 µM
# [3] = HPLM + 10% dialyzed FBS, 0.00702 µM
# [4] = HPLM + 10% dialyzed FBS, 0.0211 µM
# [5] = HPLM + 10% dialyzed FBS, 0.0632 µM
# [6] = HPLM + 10% dialyzed FBS, 0.19 µM
# [7] = HPLM + 10% dialyzed FBS, 0.569 µM
# [8] = HPLM + 10% dialyzed FBS, 1.71 µM
# [9] = HPLM + 10% dialyzed FBS, 5.12 µM
# [10] = HPLM + 10% dialyzed FBS, 15.4 µM
# [11] = HPLM + 10% dialyzed FBS, 46.1 µM
# [12] = RPMI 5 mM glucose + 10% FBS, 0.000781 µM
# [13] = RPMI 5 mM glucose + 10% FBS, 0.00234 µM
# [14] = RPMI 5 mM glucose + 10% FBS, 0.00702 µM
# [15] = RPMI 5 mM glucose + 10% FBS, 0.0211 µM
# [16] = RPMI 5 mM glucose + 10% FBS, 0.0632 µM
# [17] = RPMI 5 mM glucose + 10% FBS, 0.19 µM
# [18] = RPMI 5 mM glucose + 10% FBS, 0.569 µM
# [19] = RPMI 5 mM glucose + 10% FBS, 1.71 µM
# [20] = RPMI 5 mM glucose + 10% FBS, 5.12 µM
# [21] = RPMI 5 mM glucose + 10% FBS, 15.4 µM
# [22] = RPMI 5 mM glucose + 10% FBS, 46.1 µM
# [23] = RPMI 5 mM glucose + 10% dialyzed FBS, 0.000781 µM
# [24] = RPMI 5 mM glucose + 10% dialyzed FBS, 0.00234 µM
# [25] = RPMI 5 mM glucose + 10% dialyzed FBS, 0.00702 µM
# [26] = RPMI 5 mM glucose + 10% dialyzed FBS, 0.0211 µM
# [27] = RPMI 5 mM glucose + 10% dialyzed FBS, 0.0632 µM
# [28] = RPMI 5 mM glucose + 10% dialyzed FBS, 0.19 µM
# [29] = RPMI 5 mM glucose + 10% dialyzed FBS, 0.569 µM
# [30] = RPMI 5 mM glucose + 10% dialyzed FBS, 1.71 µM
# [31] = RPMI 5 mM glucose + 10% dialyzed FBS, 5.12 µM
# [32] = RPMI 5 mM glucose + 10% dialyzed FBS, 15.4 µM
# [33] = RPMI 5 mM glucose + 10% dialyzed FBS, 46.1 µM
structure (smiles),measurement,setting,value
CCCCc1oc2ccc(NS(C)(=O)=O)cc2c1C(=O)c1ccc(OCCCN(CCCC)CCCC)cc1,cell viability,[1],98.3%
same,cell viability,[2],99%
same,cell viability,[3],117%
same,cell viability,[4],108%
same,cell viability,[5],107%
same,cell viability,[6],108%
same,cell viability,[7],110%
same,cell viability,[8],111%
same,cell viability,[9],106%
same,cell viability,[10],12.1%
same,cell viability,[11],15%
same,cell viability,[12],96%
same,cell viability,[13],117%
same,cell viability,[14],113%
same,cell viability,[15],115%
same,cell viability,[16],118%
same,cell viability,[17],111%
same,cell viability,[18],112%
same,cell viability,[19],105%
same,cell viability,[20],98.1%
same,cell viability,[21],15.5%
same,cell viability,[22],12.7%
same,cell viability,[23],93.3%
same,cell viability,[24],99.9%
same,cell viability,[25],102%
same,cell viability,[26],109%
same,cell viability,[27],108%
same,cell viability,[28],110%
same,cell viability,[29],104%
same,cell viability,[30],109%
same,cell viability,[31],95.7%
same,cell viability,[32],20.9%
same,cell viability,[33],10.3%
OC1=C(C=CC=C1)C2=CC=C(C=C2)C3=CSC4=C3C(=C(/C#N)C(=O)N4)/O,cell viability,[1],124%
same,cell viability,[2],127%
same,cell viability,[3],124%
same,cell viability,[4],124%
same,cell viability,[5],119%
same,cell viability,[6],119%
same,cell viability,[7],112%
same,cell viability,[8],116%
same,cell viability,[9],114%
same,cell viability,[10],111%
same,cell viability,[11],110%
COc1cc2ncnc(Nc3ccc(F)c(Cl)c3)c2cc1OCCCN1CCOCC1,cell viability,[1],115%
same,cell viability,[2],114%
same,cell viability,[3],120%
same,cell viability,[4],115%
same,cell viability,[5],112%
same,cell viability,[6],113%
same,cell viability,[7],117%
same,cell viability,[8],111%
same,cell viability,[9],100%
same,cell viability,[10],95.4%
same,cell viability,[11],4.05%
same,cell viability,[12],122%
same,cell viability,[13],113%
same,cell viability,[14],109%
same,cell viability,[15],109%
same,cell viability,[16],112%
same,cell viability,[17],109%
same,cell viability,[18],114%
same,cell viability,[19],106%
same,cell viability,[20],104%
same,cell viability,[21],111%
same,cell viability,[22],93.7%
same,cell viability,[23],111%
same,cell viability,[24],116%
same,cell viability,[25],116%
same,cell viability,[26],115%
same,cell viability,[27],113%
same,cell viability,[28],109%
same,cell viability,[29],111%
same,cell viability,[30],112%
same,cell viability,[31],106%
same,cell viability,[32],101%
same,cell viability,[33],86.6%
C[C@@]12OC(=O)[C@@]1(NC(=O)[C@@H]2CCCl)[C@@H](O)[C@H]\3CCC\C=C3,cell viability,[1],96.4%
same,cell viability,[2],100%
same,cell viability,[3],104%
same,cell viability,[4],107%
same,cell viability,[5],109%
same,cell viability,[6],74.8%
same,cell viability,[7],6.01%
same,cell viability,[8],5.06%
same,cell viability,[9],3.28%
same,cell viability,[10],2.14%
same,cell viability,[11],0.616%
same,cell viability,[12],97.4%
same,cell viability,[13],109%
same,cell viability,[14],108%
same,cell viability,[15],106%
same,cell viability,[16],107%
same,cell viability,[17],69.8%
same,cell viability,[18],7.03%
same,cell viability,[19],4.69%
same,cell viability,[20],3.15%
same,cell viability,[21],2.13%
same,cell viability,[22],0.774%
same,cell viability,[23],94%
same,cell viability,[24],110%
same,cell viability,[25],105%
same,cell viability,[26],104%
same,cell viability,[27],108%
same,cell viability,[28],54.4%
same,cell viability,[29],6.75%
same,cell viability,[30],4.56%
same,cell viability,[31],3.02%
same,cell viability,[32],2.27%
same,cell viability,[33],0.713%
Cc1cnc(Nc2ccc(OCCN3CCCC3)cc2)nc1Nc1cccc([S+](=O)([O-])NC(C)(C)C)c1,cell viability,[1],100%
same,cell viability,[2],108%
same,cell viability,[3],110%
same,cell viability,[4],110%
same,cell viability,[5],115%
same,cell viability,[6],111%
same,cell viability,[7],119%
same,cell viability,[8],114%
same,cell viability,[9],112%
same,cell viability,[10],108%
same,cell viability,[11],112%
same,cell viability,[12],110%
same,cell viability,[13],116%
same,cell viability,[14],110%
same,cell viability,[15],119%
same,cell viability,[16],120%
same,cell viability,[17],116%
same,cell viability,[18],120%
same,cell viability,[19],117%
same,cell viability,[20],110%
same,cell viability,[21],108%
same,cell viability,[22],112%
same,cell viability,[23],91.8%
same,cell viability,[24],101%
same,cell viability,[25],109%
same,cell viability,[26],106%
same,cell viability,[27],117%
same,cell viability,[28],109%
same,cell viability,[29],111%
same,cell viability,[30],118%
same,cell viability,[31],110%
same,cell viability,[32],110%
same,cell viability,[33],97.6%
O=C(c1ccc(F)cc1)C1CCN(CCn2c(=O)[nH]c3ccccc3c2=O)CC1,cell viability,[23],121%
same,cell viability,[24],125%
same,cell viability,[25],118%
same,cell viability,[26],120%
same,cell viability,[27],118%
same,cell viability,[28],121%
same,cell viability,[29],140%
same,cell viability,[30],110%
same,cell viability,[31],116%
same,cell viability,[32],112%
same,cell viability,[33],102%
CO[C@@H]1[C@H](N(C)C(=O)c2ccccc2)C[C@H]2O[C@]1(C)n1c3ccccc3c3c4c(c5c6ccccc6n2c5c31)C(=O)NC4,cell viability,[1],113%
same,cell viability,[2],111%
same,cell viability,[3],113%
same,cell viability,[4],112%
same,cell viability,[5],121%
same,cell viability,[6],122%
same,cell viability,[7],122%
same,cell viability,[8],109%
same,cell viability,[9],17.9%
same,cell viability,[10],15%
same,cell viability,[11],18.9%
same,cell viability,[12],112%
same,cell viability,[13],110%
same,cell viability,[14],111%
same,cell viability,[15],117%
same,cell viability,[16],119%
same,cell viability,[17],122%
same,cell viability,[18],124%
same,cell viability,[19],106%
same,cell viability,[20],24.4%
same,cell viability,[21],28.8%
same,cell viability,[22],24.4%
same,cell viability,[23],111%
same,cell viability,[24],125%
same,cell viability,[25],117%
same,cell viability,[26],116%
same,cell viability,[27],123%
same,cell viability,[28],140%
same,cell viability,[29],126%
same,cell viability,[30],111%
same,cell viability,[31],35.7%
same,cell viability,[32],33.1%
same,cell viability,[33],30.2%
Cn1c(=O)c2c(ncn2CC(O)CO)n(C)c1=O (stereo not drawn),cell viability,[1],113%
same,cell viability,[2],112%
same,cell viability,[3],110%
same,cell viability,[4],111%
same,cell viability,[5],114%
same,cell viability,[6],116%
same,cell viability,[7],115%
same,cell viability,[8],111%
same,cell viability,[9],108%
same,cell viability,[10],117%
same,cell viability,[11],124%
same,cell viability,[12],109%
same,cell viability,[13],104%
same,cell viability,[14],118%
same,cell viability,[15],119%
same,cell viability,[16],124%
same,cell viability,[17],122%
same,cell viability,[18],127%
same,cell viability,[19],117%
same,cell viability,[20],128%
same,cell viability,[21],134%
same,cell viability,[22],128%
same,cell viability,[23],112%
same,cell viability,[24],114%
same,cell viability,[25],114%
same,cell viability,[26],116%
same,cell viability,[27],114%
same,cell viability,[28],115%
same,cell viability,[29],124%
same,cell viability,[30],117%
same,cell viability,[31],125%
same,cell viability,[32],126%
same,cell viability,[33],119%
CC(C)(O)CNc1nc(Nc2ccnc(C(F)(F)F)c2)nc(-c2cccc(C(F)(F)F)n2)n1,cell viability,[1],101%
same,cell viability,[2],103%
same,cell viability,[3],107%
same,cell viability,[4],107%
same,cell viability,[5],106%
same,cell viability,[6],102%
same,cell viability,[7],99.4%
same,cell viability,[8],104%
same,cell viability,[9],8.99%
same,cell viability,[10],10.4%
same,cell viability,[11],15.2%
same,cell viability,[12],103%
same,cell viability,[13],115%
same,cell viability,[14],100%
same,cell viability,[15],114%
same,cell viability,[16],104%
same,cell viability,[17],118%
same,cell viability,[18],111%
same,cell viability,[19],107%
same,cell viability,[20],10.2%
same,cell viability,[21],10.7%
same,cell viability,[22],13.2%
same,cell viability,[23],99.6%
same,cell viability,[24],106%
same,cell viability,[25],115%
same,cell viability,[26],117%
same,cell viability,[27],123%
same,cell viability,[28],109%
same,cell viability,[29],117%
same,cell viability,[30],118%
same,cell viability,[31],17.5%
same,cell viability,[32],21.5%
same,cell viability,[33],26.8%
